ChEMBL document CHEMBL1955768, “Impact of stereochemistry on the biological activity of novel oleandomycin derivatives” (Bioorg Med Chem, 2012)
≈ marks a conversion by molar mass, not a printed value. Calls of active or inactive are those of the source. No cut-off for these calls is given here.

How the values were obtained:
Staphylococcus aureus = experiment: Antibacterial activity against Staphylococcus aureus ATCC 13709 by broth microdilution method; format: functional
Streptococcus pneumoniae = experiment: Antibacterial activity against Streptococcus pneumoniae ATCC 49619 by broth microdilution method; format: functional
Streptococcus pyogenes = experiment: Antibacterial activity against Streptococcus pyogenes ATCC 700294 by broth microdilution method; format: functional; conditions: M1 GAS
Moraxella catarrhalis = experiment: Antibacterial activity against Moraxella catarrhalis ATCC 23246 by broth microdilution method; format: functional
Haemophilus influenzae = experiment: Antibacterial activity against Haemophilus influenzae ATCC 49247 by broth microdilution method; format: functional
Splenocyte = experiment: Inhibition of LPS-induced IL-6 production in mouse splenocytes at 50 uM after 2 hrs preincubation by ELISA; format: functional
THP-1 = experiment: Cytotoxicity against human THP1 cells at 100 uM after 24 hrs by MTS assay; format: cell-based; conditions: thp-1, 24 h
Mus musculus = experiment: Antiinflammatory activity against LPS-induced lung neutrophilia in BALB/cJ mouse model assessed as reduction in neutrophil numbers in bronchoalveolar lavage fluid at 100 mg/kg, ip treated 2 hrs before LPS challenge measured after 24 hrs by hematological analyzer; format: functional, organism-based; parameters: dose 100 mg/kg

CO[C@H]1C[C@H](O[C@H]2[C@H](C)[C@@H](O[C@@H]3O[C@H](C)C[C@H](N(C)C)[C@H]3O)[C@@H](C)C[C@@H](C)[C@@H](O)[C@H](C)[C@@H](O)[C@@H](C)[C@@H](C)OC(=O)[C@@H]2C)O[C@@H](C)[C@@H]1O
MIC (Staphylococcus aureus): > 64 µg/mL
MIC (Streptococcus pneumoniae): > 64 µg/mL
MIC (Streptococcus pyogenes): > 64 µg/mL
MIC (Moraxella catarrhalis): > 64 µg/mL
MIC (Haemophilus influenzae): > 64 µg/mL
inhibition at 50 µM (Splenocyte): 2%
Activity (THP-1): Non-toxic

CO[C@H]1C[C@H](O[C@H]2[C@H](C)[C@@H](O[C@@H]3O[C@H](C)C[C@H](N(C)C)[C@H]3O)[C@@H](C)C[C@H](C)C(=O)[C@H](C)[C@@H](O)[C@@H](C)[C@@H](C)OC(=O)[C@@H]2C)O[C@@H](C)[C@@H]1O
MIC (Staphylococcus aureus): > 64 µg/mL
MIC (Streptococcus pneumoniae): > 64 µg/mL
MIC (Streptococcus pyogenes): > 64 µg/mL
MIC (Moraxella catarrhalis): > 64 µg/mL
MIC (Haemophilus influenzae): > 64 µg/mL
inhibition at 50 µM (Splenocyte): 42%
Activity (THP-1): Non-toxic

CO[C@H]1C[C@H](O[C@H]2[C@H](C)[C@@H](O[C@@H]3O[C@H](C)C[C@H](N(C)C)[C@H]3O)[C@@H](C)C[C@@H](C)C(=O)[C@H](C)[C@@H](O)[C@@H](C)[C@@H](C)OC(=O)[C@@H]2C)O[C@@H](C)[C@@H]1O
MIC (Staphylococcus aureus): 4 µg/mL (≈ 5.94 µM)
MIC (Streptococcus pneumoniae): 0.25 µg/mL (≈ 0.371 µM)
MIC (Streptococcus pyogenes): 0.5 µg/mL (≈ 0.742 µM)
MIC (Moraxella catarrhalis): 2 µg/mL (≈ 2.97 µM)
MIC (Haemophilus influenzae): > 64 µg/mL
inhibition at 50 µM (Splenocyte): 69%
Activity (THP-1): Non-toxic

CO[C@H]1C[C@H](O[C@H]2[C@H](C)[C@@H](O[C@@H]3O[C@H](C)C[C@H](N(C)C)[C@H]3O)[C@@H](C)C[C@@H](C)[C@H](O)[C@H](C)[C@@H](O)[C@@H](C)[C@@H](C)OC(=O)[C@@H]2C)O[C@@H](C)[C@@H]1O
MIC (Staphylococcus aureus): > 64 µg/mL
MIC (Streptococcus pneumoniae): 4 µg/mL (≈ 5.92 µM)
MIC (Streptococcus pyogenes): > 64 µg/mL
MIC (Moraxella catarrhalis): > 64 µg/mL
MIC (Haemophilus influenzae): > 64 µg/mL
inhibition at 50 µM (Splenocyte): 61%
Activity (THP-1): Non-toxic
Activity (Mus musculus): Active

C=C1C[C@H](C)[C@H](O[C@@H]2O[C@H](C)C[C@H](N(C)C)[C@H]2O)[C@@H](C)[C@H](O[C@H]2C[C@H](OC)[C@@H](O)[C@H](C)O2)[C@@H](C)C(=O)O[C@H](C)[C@H](C)[C@H](O)[C@@H](C)[C@H]1O
MIC (Staphylococcus aureus): > 64 µg/mL
MIC (Streptococcus pneumoniae): > 64 µg/mL
MIC (Streptococcus pyogenes): > 64 µg/mL
MIC (Moraxella catarrhalis): > 64 µg/mL
MIC (Haemophilus influenzae): > 64 µg/mL
inhibition at 50 µM (Splenocyte): 13%
Activity (THP-1): Non-toxic

CO[C@H]1C[C@H](O[C@H]2[C@H](C)[C@@H](O[C@@H]3O[C@H](C)C[C@H](N(C)C)[C@H]3O)[C@@H](C)C[C@H](C)[C@@H](O)[C@H](C)[C@@H](O)[C@@H](C)[C@@H](C)OC(=O)[C@@H]2C)O[C@@H](C)[C@@H]1O
MIC (Staphylococcus aureus): > 64 µg/mL
MIC (Streptococcus pneumoniae): > 64 µg/mL
MIC (Streptococcus pyogenes): > 64 µg/mL
MIC (Moraxella catarrhalis): > 64 µg/mL
MIC (Haemophilus influenzae): > 64 µg/mL
inhibition at 50 µM (Splenocyte): 2%
Activity (THP-1): Non-toxic
Activity (Mus musculus): Active

CO[C@H]1C[C@H](O[C@H]2[C@H](C)[C@@H](O[C@@H]3O[C@H](C)C[C@H](N(C)C)[C@H]3O)[C@@H](C)C[C@H](C)[C@H](O)[C@H](C)[C@@H](O)[C@@H](C)[C@@H](C)OC(=O)[C@@H]2C)O[C@@H](C)[C@@H]1O
MIC (Staphylococcus aureus): > 64 µg/mL
MIC (Streptococcus pneumoniae): > 64 µg/mL
MIC (Streptococcus pyogenes): > 64 µg/mL
MIC (Moraxella catarrhalis): > 64 µg/mL
MIC (Haemophilus influenzae): > 64 µg/mL
inhibition at 50 µM (Splenocyte): 12%
Activity (THP-1): Non-toxic

C=C1C[C@H](C)[C@H](O[C@@H]2O[C@H](C)C[C@H](N(C)C)[C@H]2O)[C@@H](C)[C@H](O[C@H]2C[C@H](OC)[C@@H](O)[C@H](C)O2)[C@@H](C)C(=O)O[C@H](C)[C@H](C)[C@H](O)[C@@H](C)[C@@H]1O
MIC (Staphylococcus aureus): > 64 µg/mL
MIC (Streptococcus pneumoniae): > 64 µg/mL
MIC (Streptococcus pyogenes): > 64 µg/mL
MIC (Moraxella catarrhalis): > 64 µg/mL
MIC (Haemophilus influenzae): > 64 µg/mL
inhibition at 50 µM (Splenocyte): 13%
Activity (THP-1): Non-toxic
